Results taken from patent US11547697B2, “Heterocyclic compounds and uses thereof” (MILLENNIUM PHARMACEUTICALS, INC., priority 2009, dated 2023).
Like-named read-outs stand apart in the source and are kept apart here.

Columns and labels:
[1] = target: recombinant mTOR (Homo sapiens (Human), UniProt P42345); assay: mTOR inhibition assay (radiometric or LanthaScreen TR-FRET); type: biochemical; details: read-out: MTORC IC50
[2] = target: p110α/p85α (Homo sapiens (Human), UniProt P42336); assay: PI 3-Kinase (human) HTRF assay, p110α/p85α; type: biochemical; details: read-out: PI3K α IC50
[3] = target: p110β/p85α (Homo sapiens (Human), UniProt P42338); assay: PI 3-Kinase (human) HTRF assay, p110β/p85α; type: biochemical; details: read-out: PI3K β IC50
Chain of p110β/p85α (P42338 whole entry): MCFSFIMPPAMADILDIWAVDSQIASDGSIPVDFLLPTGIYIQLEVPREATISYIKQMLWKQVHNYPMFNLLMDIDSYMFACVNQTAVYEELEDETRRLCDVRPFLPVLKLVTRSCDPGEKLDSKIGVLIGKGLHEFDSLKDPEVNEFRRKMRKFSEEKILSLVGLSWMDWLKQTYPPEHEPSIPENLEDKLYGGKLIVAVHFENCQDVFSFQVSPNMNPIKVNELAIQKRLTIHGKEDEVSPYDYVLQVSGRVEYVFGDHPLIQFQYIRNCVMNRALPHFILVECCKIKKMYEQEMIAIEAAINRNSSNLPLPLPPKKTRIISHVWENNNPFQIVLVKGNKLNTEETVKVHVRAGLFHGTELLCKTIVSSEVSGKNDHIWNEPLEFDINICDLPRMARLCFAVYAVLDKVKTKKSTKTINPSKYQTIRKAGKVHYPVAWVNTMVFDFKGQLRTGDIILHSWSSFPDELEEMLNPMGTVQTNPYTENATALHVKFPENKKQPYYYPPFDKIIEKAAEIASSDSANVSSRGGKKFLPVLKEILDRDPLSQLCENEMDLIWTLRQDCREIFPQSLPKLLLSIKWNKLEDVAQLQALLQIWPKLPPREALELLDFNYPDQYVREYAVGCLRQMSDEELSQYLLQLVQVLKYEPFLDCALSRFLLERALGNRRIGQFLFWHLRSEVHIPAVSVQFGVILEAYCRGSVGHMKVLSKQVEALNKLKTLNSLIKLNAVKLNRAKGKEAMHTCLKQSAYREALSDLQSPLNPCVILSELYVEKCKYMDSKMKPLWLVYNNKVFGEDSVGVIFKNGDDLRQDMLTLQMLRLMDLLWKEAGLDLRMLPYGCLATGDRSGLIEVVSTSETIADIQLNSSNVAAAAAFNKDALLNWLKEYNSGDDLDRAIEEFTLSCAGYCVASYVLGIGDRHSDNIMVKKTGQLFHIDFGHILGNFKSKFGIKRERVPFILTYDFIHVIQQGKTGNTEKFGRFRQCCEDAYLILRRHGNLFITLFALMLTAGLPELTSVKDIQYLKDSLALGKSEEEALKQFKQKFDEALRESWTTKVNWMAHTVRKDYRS
Chain of p110β/p85α (P27986 whole entry partner): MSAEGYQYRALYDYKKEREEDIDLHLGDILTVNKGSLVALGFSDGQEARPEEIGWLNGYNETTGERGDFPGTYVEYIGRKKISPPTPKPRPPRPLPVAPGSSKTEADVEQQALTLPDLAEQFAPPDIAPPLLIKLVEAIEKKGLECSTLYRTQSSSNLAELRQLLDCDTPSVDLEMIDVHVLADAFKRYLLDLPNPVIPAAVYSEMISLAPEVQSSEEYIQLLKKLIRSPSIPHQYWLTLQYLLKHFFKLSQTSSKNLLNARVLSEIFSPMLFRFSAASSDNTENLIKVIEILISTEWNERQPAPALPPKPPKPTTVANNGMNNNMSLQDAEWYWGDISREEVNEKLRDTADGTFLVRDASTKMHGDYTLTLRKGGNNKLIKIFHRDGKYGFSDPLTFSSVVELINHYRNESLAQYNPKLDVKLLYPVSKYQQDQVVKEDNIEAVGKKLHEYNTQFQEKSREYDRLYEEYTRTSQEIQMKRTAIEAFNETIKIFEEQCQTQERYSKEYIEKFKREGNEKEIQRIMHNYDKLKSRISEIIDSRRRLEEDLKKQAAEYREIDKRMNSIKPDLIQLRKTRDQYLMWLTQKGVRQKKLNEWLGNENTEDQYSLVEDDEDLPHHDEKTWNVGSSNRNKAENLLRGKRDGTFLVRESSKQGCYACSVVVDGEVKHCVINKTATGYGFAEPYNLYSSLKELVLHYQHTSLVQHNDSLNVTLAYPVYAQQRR

[4] = target: p110δ/p85α (Homo sapiens (Human), UniProt O00329); assay: PI 3-Kinase (human) HTRF assay, p110δ/p85α; type: biochemical; details: read-out: PI3K δ IC50
Chain of p110δ/p85α (O00329 whole entry): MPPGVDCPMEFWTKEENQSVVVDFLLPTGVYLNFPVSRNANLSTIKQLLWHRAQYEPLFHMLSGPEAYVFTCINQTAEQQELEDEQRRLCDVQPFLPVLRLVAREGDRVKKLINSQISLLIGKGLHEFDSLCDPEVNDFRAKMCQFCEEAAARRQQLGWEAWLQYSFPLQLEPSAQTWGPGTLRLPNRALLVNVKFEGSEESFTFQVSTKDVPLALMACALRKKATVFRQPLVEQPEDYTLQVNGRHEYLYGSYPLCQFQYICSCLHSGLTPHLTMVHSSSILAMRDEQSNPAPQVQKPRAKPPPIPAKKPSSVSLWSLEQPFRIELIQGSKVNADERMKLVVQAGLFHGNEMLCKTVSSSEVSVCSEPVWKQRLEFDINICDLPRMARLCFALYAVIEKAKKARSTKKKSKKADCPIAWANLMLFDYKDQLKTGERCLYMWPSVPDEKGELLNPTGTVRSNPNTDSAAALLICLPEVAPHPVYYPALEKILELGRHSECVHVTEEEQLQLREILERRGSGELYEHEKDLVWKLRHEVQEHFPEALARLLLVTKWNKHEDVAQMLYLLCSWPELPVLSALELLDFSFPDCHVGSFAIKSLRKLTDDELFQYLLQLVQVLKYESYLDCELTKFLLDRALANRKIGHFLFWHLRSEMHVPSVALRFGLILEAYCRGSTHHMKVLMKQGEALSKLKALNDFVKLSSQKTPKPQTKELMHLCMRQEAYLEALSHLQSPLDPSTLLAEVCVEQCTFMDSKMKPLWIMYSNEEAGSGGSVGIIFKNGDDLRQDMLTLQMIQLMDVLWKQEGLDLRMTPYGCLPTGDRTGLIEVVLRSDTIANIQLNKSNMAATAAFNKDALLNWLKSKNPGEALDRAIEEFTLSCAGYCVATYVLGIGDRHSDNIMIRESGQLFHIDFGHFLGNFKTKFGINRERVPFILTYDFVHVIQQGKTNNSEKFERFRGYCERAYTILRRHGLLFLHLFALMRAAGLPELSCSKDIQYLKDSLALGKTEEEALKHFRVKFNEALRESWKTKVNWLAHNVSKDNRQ
Chain of p110δ/p85α (P27986 whole entry partner): as the sequence (P27986 whole entry partner) above

[5] = target: p110γ (Homo sapiens (Human), UniProt P48736); assay: PI 3-Kinase (human) HTRF assay, p110γ; type: biochemical; details: read-out: PI3K γ IC50
[6] = system: tumor cells with a PI3Kα mutation (e.g., MDA-MB-361 and T47D); assay: Proliferation of tumor cells with PI3Kα mutation; type: cell-based; details: Homo sapiens, T47D cells

Chain of recombinant mTOR (P42345 1360-2549): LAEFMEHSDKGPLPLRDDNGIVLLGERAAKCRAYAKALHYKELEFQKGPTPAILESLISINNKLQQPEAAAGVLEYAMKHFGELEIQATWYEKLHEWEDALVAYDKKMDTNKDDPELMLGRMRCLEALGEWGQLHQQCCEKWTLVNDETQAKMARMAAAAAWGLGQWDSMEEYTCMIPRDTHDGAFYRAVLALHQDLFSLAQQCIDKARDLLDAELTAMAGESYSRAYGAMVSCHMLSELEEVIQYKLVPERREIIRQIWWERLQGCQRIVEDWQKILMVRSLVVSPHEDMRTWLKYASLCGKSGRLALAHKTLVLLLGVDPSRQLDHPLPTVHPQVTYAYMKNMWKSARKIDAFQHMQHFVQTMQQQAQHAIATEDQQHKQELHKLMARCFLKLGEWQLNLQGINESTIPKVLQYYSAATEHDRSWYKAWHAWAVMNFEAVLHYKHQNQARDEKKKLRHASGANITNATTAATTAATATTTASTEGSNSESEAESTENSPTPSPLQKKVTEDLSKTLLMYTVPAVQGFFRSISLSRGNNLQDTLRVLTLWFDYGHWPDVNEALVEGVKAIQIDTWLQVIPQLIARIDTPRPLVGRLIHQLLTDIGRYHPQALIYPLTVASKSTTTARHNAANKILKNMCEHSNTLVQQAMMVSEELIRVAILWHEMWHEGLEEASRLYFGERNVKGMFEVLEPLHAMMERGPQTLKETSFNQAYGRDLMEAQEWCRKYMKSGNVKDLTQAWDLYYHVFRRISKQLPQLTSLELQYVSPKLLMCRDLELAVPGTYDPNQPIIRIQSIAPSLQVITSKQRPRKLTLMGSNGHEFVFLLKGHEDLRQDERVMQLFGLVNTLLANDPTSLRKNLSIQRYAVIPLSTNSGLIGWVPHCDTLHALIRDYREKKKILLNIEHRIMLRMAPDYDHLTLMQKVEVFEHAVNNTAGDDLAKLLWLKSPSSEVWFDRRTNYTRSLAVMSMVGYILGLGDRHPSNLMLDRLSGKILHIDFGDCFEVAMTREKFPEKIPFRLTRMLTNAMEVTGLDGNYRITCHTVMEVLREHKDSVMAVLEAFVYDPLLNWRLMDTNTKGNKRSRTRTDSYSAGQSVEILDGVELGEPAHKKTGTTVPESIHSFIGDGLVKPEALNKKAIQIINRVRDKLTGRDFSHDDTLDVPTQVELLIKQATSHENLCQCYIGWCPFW

SMILES | IC50 [1] | IC50 [2] | IC50 [3] | IC50 [4] | IC50 [5] | IC50 ([6]; read-out: T47D proliferation) | IC50 ([1]; in vitro) | IC50 ([2]; in vitro) | IC50 ([3]; in vitro) | IC50 ([4]; in vitro) | IC50 ([5]; in vitro) | IC50 ([6]; read-out: T47D proliferation IC50)
Nc1nc2cccc(-c3ccc4nccc(-c5ccncc5)c4c3)c2o1 [compound 15] | < 0.1 µM | < 0.1 µM | < 0.1 µM | < 1 µM | < 1 µM | – | – | – | – | – | – | –
CN1CCC(Nc2ncnc3ccc(-c4ccc5oc(N)nc5c4)cc23)CC1 [compound 35] | < 10 µM | < 0.1 µM | – | < 0.1 µM | < 0.1 µM | < 10 µM | – | – | – | – | – | –
CN1CCC(n2cnc3ccc(-c4ccc5oc(N)nc5c4)cc3c2=O)CC1 [compound 36] | < 10 µM | < 0.1 µM | – | < 10 µM | – | < 10 µM | – | – | – | – | – | –
Cn1cc(-c2cnc3ccc(-c4ccc5oc(N)nc5c4)cn23)cn1 [compound 41] | < 10 µM | < 0.1 µM | – | < 1 µM | < 1 µM | < 10 µM | – | – | – | – | – | –
Nc1nc2cc(-c3ccc4ncnc(OC5CCOCC5)c4c3)ccc2o1 [compound 47] | < 0.1 µM | < 0.1 µM | < 1 µM | < 1 µM | < 1 µM | < 1 µM | – | – | – | – | – | –
Nc1nc2cc(-c3ccc4ncc(OC5CCOCC5)nc4c3)ccc2o1 [compound 49] | < 10 µM | < 0.1 µM | – | < 10 µM | < 1 µM | < 10 µM | – | – | – | – | – | –
Cc1nc2ccc(-c3ccc4oc(N)nc4c3)nn2c1-c1ccncc1 [compound 56] | < 1 µM | < 0.1 µM | < 1 µM | – | < 0.1 µM | < 10 µM | – | – | – | – | – | –
CC(=O)N1CCC(Nc2ncnc3ccc(-c4ccc5oc(N)nc5c4)cc23)CC1 [compound 60] | < 1 µM | < 0.1 µM | < 10 µM | < 1 µM | < 0.1 µM | – | – | – | – | – | – | –
Nc1nc2cc(-c3ccn4ncc(-c5ccncc5)c4n3)ccc2o1 [compound 62] | < 0.1 µM | < 0.1 µM | < 0.1 µM | < 0.1 µM | < 0.1 µM | – | – | – | – | – | – | –
Nc1nc2cc(-c3ccc4ncc(N5CCOCC5)nc4c3)ccc2o1 [compound 64] | < 10 µM | < 0.1 µM | < 1 µM | – | < 0.1 µM | < 10 µM | – | – | – | – | – | –
CC(C)N1CCC(n2cnc3ccc(-c4ccc5oc(N)nc5c4)cc3c2=O)CC1 [compound 74] | < 10 µM | < 0.1 µM | < 10 µM | – | < 10 µM | < 10 µM | – | – | – | – | – | –
Nc1nc2cc(-c3ccc4ncc(-c5cccnc5)nc4c3)ccc2o1 [compound 76] | < 10 µM | < 0.1 µM | – | – | < 1 µM | < 10 µM | – | – | – | – | – | –
CCOC(=O)N1CCN(c2cnc3ccc(-c4ccc5oc(N)nc5c4)cc3n2)CC1 [compound 119] | < 10 µM | < 0.1 µM | < 10 µM | < 10 µM | < 10 µM | < 10 µM | – | – | – | – | – | –
Nc1nc2cc(-c3ccc4ncc(N5CC(C(=O)N6CCOCC6)C5)nc4c3)ccc2o1 [compound 169] | < 10 µM | < 0.1 µM | < 1 µM | < 1 µM | < 1 µM | < 1 µM | – | – | – | – | – | –
CN1CCN(C(=O)C2CN(c3cnc4ccc(-c5ccc6oc(N)nc6c5)cc4n3)C2)CC1 [compound 170] | < 10 µM | < 0.1 µM | < 1 µM | < 1 µM | < 10 µM | < 1 µM | – | – | – | – | – | –
Nc1nc2cc(-c3ccc4nc(N)sc4c3)ccc2o1 [compound 232] | – | – | – | – | – | – | < 10 µM | < 1 µM | < 1 µM | < 10 µM | < 0.1 µM | –
CC(=O)Nc1ncc(-c2ccc3oc(N)nc3c2)s1 [compound 235] | – | – | – | – | – | – | < 10 µM | < 10 µM | – | < 10 µM | < 10 µM | –
Nc1nc2cc(-c3ccc4oc(N)nc4c3)ccc2o1 [compound 240] | – | – | – | – | – | – | < 10 µM | < 1 µM | – | < 10 µM | < 0.1 µM | –
Nc1nc2cc(-c3ccc4nc(N)oc4c3)ccc2o1 [compound 241] | – | – | – | – | – | – | < 10 µM | < 1 µM | – | < 1 µM | < 0.1 µM | –
Nc1nc2cc(-c3ccc4ncc(N5CC[C@H](O)C5)nc4c3)ccc2o1 [compound 262] | – | – | – | – | – | – | < 10 µM | < 0.1 µM | < 1 µM | – | < 1 µM | < 10 µM
